Measurements taken from paper PMC11259170, “Small-molecule probe for IBD risk variant GPR65 I231L alters cytokine signaling networks through positive allosteric modulation” (Science Advances, 2024).
Where two headings read alike, the source gives them in different places.

Tests used:
hGPR65 [1] = molecular target: T1, hGPR65 (Homo sapiens, UniProt Q8IYL9); test: cAMP detection (Lance Ultra), GPR65 KO HeLa reconstituted with hGPR65; 21K screen dose confirmation; format: cell-based; conditions: HeLa GPR65 KO + hGPR65, pH 7.1, 30 min, normalized to DMSO and 100 μM forskolin; read-out: WT EC50
T1 construct: expressed in transfected cells; host or cells: HeLa (ATCC CCL-2), lentiviral transduction, pLX317
Experimental: (§1) The Lance Ultra cAMP Kit (PerkinElmer, TRF0264) was used for cAMP detection, and included the following reagents: ULight anti-cAMP antibody, Eu-cAMP tracer, 7.5% BSA Stabilizer solution, and cAMP detection buffer. Stimulation buffer was prepared as described by the kit manufacturer as follows: Hanks buffered saline solution (HBSS, Life Technologies, 14025-126) containing 0.5 mM IBMX (3-isobutyl-1-methylxanthine, Sigma-Aldrich, I7018) and buffered with 1 M Hepes (15630-080). Stimulation buffer was then adjusted to pH 7.1 using 12 N HCl. HeLa cells were lifted using Versene and then suspended at 2.5 × 10^5 cells/ml in stimulation buffer. Cells were then plated at 20 μl per well (5000 cells per well) in white, opaque OptiPlate 384-well MicroPlates (PerkinElmer, 6007299) using a Thermo Fisher Scientific Combi liquid dispenser. Compounds, stored at 5 mM in DMSO for the primary screen, or in a range of concentrations from 39 μM to 20 mM for dose curves, were transferred by the CyBio CyBi-Well Vario pin transfer tool with 100-nl pins (V&P FP1NS50H, 50-nl slot, 0.457-mm diameter, hydrophobic coated), into each assay well, 100 nl per well for a final assay concentration of 25 μM for the primary screen, or 195 nM to 100 μM for dose curves. Assay plates were then incubated at RT for 30 min. Eu-cAMP tracer was diluted 1:33 into detection buffer and the final solution then distributed into assay wells, 5 μl per well. ULight anti-cAMP antibody was diluted 1:100 into detection buffer, then distributed into assay wells, also 5 μl per well. Assay plates were then incubated at RT in the dark for 1 hour. Eu-cAMP tracer and Förster resonance energy transfer (FRET) emissions were then read using a PerkinElmer EnVision Multimode plate reader (ENVISION21040010), exciting each well at 320 nm [UV2 (TRF) 320 filter] and reading emissions at 615 nm (Europium 615 filter) and 665 nm (APC665 filter). Data analysis was performed using Genedata Screener and GraphPad Prism.
(§2) HeLa KO cell lines were generated using the px330 plasmid CRISPR system as previously described ([18]). Briefly, HeLa cells were transfected with a Cas9 vector containing a gene-specific single-guide RNA to target the GPR65 coding exon. Forty-eight to 72 hours after transfection, single clones were obtained through limiting dilution and then sequenced to validate the KO. Reconstituted cell lines were produced by transducing KO cells with empty lentivirus or lentivirus containing hGPR65 or mGPR65. After 48 hours, cells were treated with puromycin (3 μg/ml; InvivoGen, ant-pr-1) and resistant cells were used in experiments.

[2] = system: GPR65 KO HeLa cells + pLX empty vector; test: cAMP detection, GPR65 KO HeLa + empty pLX vector (null control); format: cell-based, human; conditions: HeLa GPR65 KO + pLX, pH 7.1, 30 min, normalized to DMSO and 100 μM forskolin
Experimental: as §1, §2

mGPR65 = molecular target: T2, mGPR65 (Mus musculus, UniProt Q61038); test: cAMP detection in HeLa expression cell line, mGPR65; format: cell-based; conditions: for Emax: HeLa, relative to 100uM forskolin (100%) and DMSO (0%), read-out: mGPR Max Activity %; for EC50: mGPR EC50 (uM)
T2 construct: expressed in transfected cells; host or cells: HeLa (ATCC CCL-2), lentiviral transduction, pLX317
How it was run: (§3)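 Lentivirally transduced HeLa, V5-tagged GPCR, puromycin 3 μg/ml. 1500 cells/well, stimulation buffer pH 7.2, compound (10 mM DMSO stock), 30 min RT. Lyse, detection reagents 1 h dark RT. TR-FRET cAMP kit, ex 337, em 620/665.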

[3] = Solubility in phosphate buffer; format: physicochemical; conditions: read-out: Solubility
Lipophilicity (logD) = format: physicochemical; conditions: pH 7.4; pH7.4; read-out: LogD (pH7.4)
hGPR65 [4] = molecular target: T1, hGPR65; test: cAMP detection in HeLa expression cell line, hGPR65; format: cell-based; conditions: for Emax: HeLa, relative to 100uM forskolin (100%) and DMSO (0%), read-out: hGPR Max Activity %
How it was run: as §3

hGPR65-SmBiT = molecular target: T3, hGPR65-SmBiT (Homo sapiens, UniProt Q8IYL9); test: Nano-BiT target engagement, LgBiT-mGs recruitment to hGPR65-SmBiT in Expi293F cells; format: cell-based; conditions: isoproterenol treatment
T3 construct: expressed in transfected cells; host or cells: Expi293F (Gibco), transient transfection
Experimental: Target engagement was measured in Expi293F (Gibco, 100044202) cells using the Nano-Glo Live Cell Assay System (Promega, N2011). Nano-BiT plasmids were cloned from GPR65-, GPR4-, and GPR68-Tango plasmids. GPR65-Tango (Addgene plasmid # 66370; http://n2t.net/addgene:66370; RRID:Addgene_66370), GPR4-Tango (Addgene plasmid # 66358; http://n2t.net/addgene:66358; RRID:Addgene_66358), and GPR68-Tango (Addgene plasmid # 66371; http://n2t.net/addgene:66371; RRID:Addgene_66371) were gifts from Bryan Roth. Expi293F cells were transfected 1 day before kinetics with 500 ng of each plasmid using ExpiFectamine 293 Transfection Kit (Gibco, A14525). After 24 hours, cells were collected, washed, and resuspended in room temperature 0.1% PBS-BSA, adjusted to pH 7.4 using 1 M NaOH. Cells were transferred to white opaque 96-well microplates (100 μl per well, PerkinElmer, 6005290), followed by addition of the Nano-Glo Live Cell Reagent (25 μl per well). Baseline luminescence was measured for 10 cycles (1 cycle = 90 s) before adding compounds. All luminescence measurements were made on BMG Labtech PHERAstar FSX. Data analysis was performed using GraphPad Prism.

[5] = 2nd mGPR column pair, NA = no activity

T2 sequence (Q61038 whole entry): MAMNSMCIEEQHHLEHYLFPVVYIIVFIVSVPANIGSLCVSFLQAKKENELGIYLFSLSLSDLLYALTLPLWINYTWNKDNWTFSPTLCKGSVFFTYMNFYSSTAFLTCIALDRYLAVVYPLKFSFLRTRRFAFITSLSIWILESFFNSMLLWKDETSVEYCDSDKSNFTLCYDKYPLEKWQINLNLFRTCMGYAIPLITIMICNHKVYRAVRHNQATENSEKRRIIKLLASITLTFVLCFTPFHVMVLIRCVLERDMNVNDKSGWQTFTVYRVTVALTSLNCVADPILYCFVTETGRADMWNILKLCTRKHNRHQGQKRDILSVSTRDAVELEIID
T1 sequence (Q8IYL9 whole entry): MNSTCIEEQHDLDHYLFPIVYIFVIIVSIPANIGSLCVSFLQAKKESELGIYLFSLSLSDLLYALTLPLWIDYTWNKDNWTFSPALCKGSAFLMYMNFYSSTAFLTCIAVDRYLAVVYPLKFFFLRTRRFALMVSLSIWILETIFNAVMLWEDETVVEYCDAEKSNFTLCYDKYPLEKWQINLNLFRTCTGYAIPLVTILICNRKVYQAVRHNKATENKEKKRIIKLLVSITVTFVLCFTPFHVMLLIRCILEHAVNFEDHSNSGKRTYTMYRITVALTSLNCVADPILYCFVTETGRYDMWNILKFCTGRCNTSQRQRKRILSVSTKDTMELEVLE
T3 sequence (Q8IYL9 whole entry): as above

SMILES	EC50 (hGPR65 [1]) [µM]	EC50 [2] [µM]	further results
O=C(Cn1nnc(-c2ccccc2NC(=O)c2ccccc2)n1)NC1CCCCC1 [BRD-K79778627-001-02-1]	> 100	73.7	–
Cc1nccn1-c1ccc(CN(Cc2cccnc2)C2CC(C)(C)NC(C)(C)C2)cc1 [BRD-K56921026-001-02-1]	57	50.8	–
Cn1cc(C(=O)c2ccc(F)cc2)c2ccnc(Cl)c21 [BRD-K96864761-001-02-4]	48.1	44.5	–
Cn1ccc2c(-c3cccc(=O)[nH]3)ccnc21 [BRD-K33217544-001-03-3]	91.8	89.8	–
c1ccc(-c2cc3ncnc(N4CCSCC4)c3s2)cc1 [BRD-K51028315-001-02-0]	> 100	> 100	–
O=C(O)CCSCCc1ccncc1 [BRD-K06534048-001-02-7]	37.8	29.3	–
O=c1[nH]c2ccccc2c2oc(-c3ccccc3)nc12 [BRD-K66733191-001-02-7]	91.2	71	–
Clc1ccc2c(N3CCCC4(CCNC4)C3)ccnc2c1 (stereo not drawn) [BRD-A50085437-001-02-6]	26.2	33.5	–
O=C(O)C1CCN(c2ncnc3ccccc23)CC1 [BRD-K45393828-001-02-7]	54.4	39.5	–
CN1CCN(c2ccnc3ccccc23)CC1C(=O)O (stereo not drawn) [BRD-A45312230-001-02-1]	1.2	1.3	–
COC(=O)Nc1nc2ccc(-c3n[nH]c(=O)c4ccccc34)cc2[nH]1 [BRD-K25806464-001-09-6]	< 10	< 10	–
Nc1ccc2c(C(F)(F)F)cc(=O)oc2c1 [BRD-K20841137-001-08-7]	> 100	> 100	–
CCc1cc(CC)c2sc3ccccc3c(=O)c2c1 [BRD-K51520769-001-02-7]	> 100	> 100	–
Cc1ccc(NC(=O)c2cnn3c(O)cc(-c4ccc(COC(C)C)cc4)nc23)cc1F [BRD5078, O=C(NC1=CC=C(C)C(F)=C1)C2=C3N(N=C2)C(O)=CC(C4=CC=C(COC(C)C)C=C4)=N3]	–	–	activity for mGPR65 among prioritized molecules (mGPR65; 1.56 μM, pH 7.2): highest activity; Emax (mGPR65; [5]): 51.5%; Emax (mGPR65; NA = no activity): 53.6%; EC50 (mGPR65; [5]): 0.944 µM; EC50 (mGPR65; first pair of columns, pH 7.2, 30 min): 0.477 µM; EC50 (mGPR65; second pair of columns, pH 7.2, 30 min): 0.29 µM; EC50 (mGPR65; NA = no activity): 0.332 µM; cAMP activity, mGPR65 (mGPR65; pH 7.2): at least 40%; solubility [3]: < 1.56 µM; logD (Lipophilicity (logD)): > 4.96; activity for hGPR65 (hGPR65 [4]): strong activity for hGPR65; activity for hGPR65 among prioritized molecules (hGPR65 [4]; 1.56 μM, pH 7.2): highest activity; Emax (hGPR65 [4]; 1st hGPR column pair, NA = no activity): 80.5%; Emax (hGPR65 [4]; 2nd hGPR column pair, NA = no activity): 73.3%; EC50 (hGPR65 [4]; hGPR EC50 (uM), NA = no activity): 0.229 µM; EC50 (hGPR65 [4]; hGPR EC50 (uM), pH 7.2, 30 min): 0.347 µM; EC50 (hGPR65 [4]; hGPR EC50, NA = no activity): 0.351 µM; EC50 (hGPR65 [4]; hGPR EC50, pH 7.2, 30 min): 0.264 µM; cAMP activity, hGPR65 (hGPR65 [4]; pH 7.2): at least 40%
COc1ccc(NC(=O)CSc2nc3ccc(C)cc3cc2C#N)cc1 [BRD-K45250069-001-02-7]	> 100	> 100	–
O=C(c1cc2c([nH]c1=O)CCC2)N1CCN(c2ccnc3cc(Cl)ccc23)CC1 [BRD-K91175373-001-02-0]	20.1	16.9	–
N#Cc1cnc(SCc2cc(=O)[nH]c3ccccc23)nc1N [BRD-K39252032-001-02-5]	> 100	67.6	–
O=C(O)CCCc1nc(-c2cccnc2)no1 [BRD-K41365409-001-02-6]	41.3	35.7	–
O=C(CN1CCC(c2ccncc2)CC1)NCc1cccs1 [BRD-K63268990-001-02-0]	> 100	> 100	–
Cc1cc(C)n(CC(O)CN(Cc2ccco2)Cc2cccc3ncccc23)n1 (stereo not drawn) [BRD-A63170499-001-02-6]	> 100	> 100	–
CCCOc1cc2c(cc1CN(C)Cc1cc(=O)[nH]c3ccccc13)OCO2 [BRD-K37392365-001-02-8]	> 100	> 100	–
CC(=O)N1CCCC(CCCc2ccncc2)(C(=O)O)C1 (stereo not drawn) [BRD-A44875014-001-02-0]	13.2	14.7	–
CN(C)CCOC(=O)C1CC2=C(CCCC2(C)C)CC1C(=O)O (stereo not drawn) [BRD-A91973386-001-02-5]	59.6	70.7	–
COc1cc(Br)c(-c2cc3ccccc3oc2=O)cc1OC [BRD-K22294093-001-02-2]	< 10	< 10	–
CCN1CCCc2cc(-c3cncn3C(C)CN3CCOCC3)ccc21 (stereo not drawn) [BRD-A40378740-001-02-0]	> 100	> 100	–
Cn1c(=O)n(C)c2cc(NC(=O)CSc3ncc(C#N)c(N)n3)ccc21 [BRD-K40764399-001-02-3]	> 100	> 100	–
CC(C)NCC(O)c1ccc(O)c(O)c1 (stereo not drawn) [isoproterenol, reference compound]	–	–	luminescence in hGPR65-SmBiT/LgBiT-mGs cells (hGPR65-SmBiT): did not elicit a change in luminescence
Cc1cnc(N)c(C(=O)C2CCN(C(=O)c3cnc(C)nc3C)CC2)c1 [BRD-K07158347-001-02-2]	18.3	17	–
